# Measurements: paper PMC7910296, “Phosphorescent Ir(III) complexes conjugated with oligoarginine peptides serve as optical probes for in vivo microvascular imaging” (Scientific Reports, 2021)
# Columns and labels:
# vascular endothelium = assay: In vivo luminescence intensity and lifetime imaging after intravenous administration
# [1] = Water solubility / aggregate formation in aqueous solution; assay type: physicochemical
# Excerpt: Ir(III) complexes BTQ-Rn (n = 4, 8, 12, 16) with different lengths of arginine peptides in the ligand (Fig. 1) were obtained by chemical synthesis, including solid-phase synthesis of the peptides. The synthetic details and characterization of BTQ-Rn are described in Supplementary Information. We first examined the spectral and photophysical properties of the synthesized BTQ-Rn (n = 4, 8, 12, 16) in MeCN and Tris–HCl buffer (pH 7.0) and compared them to the parent complex BTQphen. Figure 2A,B show the absorption and emission spectra of BTQphen and BTQ-R12 (a representative BTQ-Rn) in MeCN. […] The first absorption band of BTQ-R12, which has a molar absorption coefficient of 7600 mol^−1 dm^3 cm^−1 at 496 nm, can be assigned to the singlet metal-to-ligand charge transfer (^1MLCT) transition. Emissions appear in the red to near-infrared region, with the maximum at around 660 nm, and show a very large Stokes shift. The emission decay profiles follow single-exponential functions, with lifetimes of 5.7 μs for BTQphen and 5.9 μs for BTQ-R12 in deaerated MeCN, and 0.28 μs for BTQphen and BTQ-R12 in aerated MeCN (Table 1). The extremely long lifetimes in deaerated solution and significant quenching by dissolved oxygen indicate that emission is due to phosphorescence. […]
# [2] = Phosphorescence lifetime in solution (time-correlated single-photon counting); assay type: physicochemical; details: 37 °C
# Method: (§1) Phosphorescence lifetimes were measured with a time-correlated single-photon counting fluorimeter (Quantaurus-Tau C11367G, Hamamatsu Photonics). A laser diode (M12488-35, Hamamatsu Photonics; 481 nm, pulse width 70 ps) was used as the excitation light source. The temperature of the sample solution was controlled by circulating water through a jacket cuvette holder from a temperature controlled bath (RTE7, Neslab). Phosphorescence quantum yields were determined on an absolute photoluminescence quantum yield measurement system (C9920-02, Hamamatsu Photonics) consisting of a Xe arc lamp, a monochromator, an integrating sphere, and a multichannel detector[41].
# [3] = Absorption and emission spectra; assay type: physicochemical; details: MeCN with 1% DMSO, room temperature
# Method: Absorption and emission spectra were recorded on a UV–Vis spectrophotometer (Ubest V-550, JASCO) and a photonic multichannel analyzer PMA-12 (C11027-01, Hamamatsu Photonics) equipped with a monochromatized Xe arc lamp, respectively. The emission spectra were fully corrected for spectral sensitivity.
# [4] = Phosphorescence quantum yield (absolute photoluminescence quantum yield system); assay type: physicochemical; details: room temperature
# Method: as §1
Compound,"localization in liver (vascular endothelium; living mice, PC6S 50 nmol iv, fluorescence intensity images of liver)","aggregate formation ([1]; aqueous solution / Tris–HCl buffer (pH 7.0), from spectra and single-exponential decay)","water solubility ([1]; aqueous solution, in words)","τp, phosphorescence lifetime ([2]; aerated MeCN)","τp0, phosphorescence lifetime ([2]; deaerated MeCN)",emission maximum [3],"Φp, phosphorescence quantum yield ([4]; aerated MeCN)","Φp0, phosphorescence quantum yield ([4]; deaerated MeCN)","localization in renal cortex (vascular endothelium; mouse kidney, about 1 h after intravenous administration (100 nmol; FITC-lectin 1 mg/mL, 50 μL), luminescence intensity images)"
"CCN(CC)c1ccc2cc3cc(-c4nc5ccccc5s4)c(=O)oc3cc2c1 [PC6S, reference compound]",taken up into hepatocytes and likely accumulates in LDs and the ER,,,,,,,,
(btq)2Ir(phen-pipe) [BTQphen],,forms aggregates,extremely low water solubility,0.28 µs,5.7 µs,around 660 nm,0.015,0.32,localized in tubular cells rather than in capillaries
